Measured values published in patent EP2676666A1, “Compounds for use in diagnosis or therapy of vulnerable atherosclerotic plaques” (Eidgenössische Technische Hochschule Zürich (ETH), priority 2012, dated 2013).

System: human atherosclerotic plaques
Experiment: Autoradiography binding study on human atherosclerotic plaque sections
Details: 2.5 nM; for maximal bound ^11C-Compound 4: average value (red line), 20 min, room temperature, values normalized to vulnerable plaque 8
Protocol: Compound 4 was labeled with ^11C (specific activity ~350 GBq/µmol) and human atherosclerotic sections were incubated with 2.5 nM for 20 min, room temperature. Nonspecific binding was determined in the presence of excess nonradioactive Compound 4 (100 µM). After washing to remove unspecific bound ^11C-Compound 4, slides were exposed to a radiosensitive film (BAS-5000 Fujifilm) for 30 min. Calibration standards (2.5 - 0.02 nM) were included in the cassette. Films were developed using an automatic film processor (BAS 5000, Fuji) Quantitative analysis was performed using a computerized image analysis system (AIDA Image Analyzer Software). Optical density readings, corrected for background, were made and values standardized against the linear portion of a curve generated using standards and expressed as maximal bound ^11C-Compound 4. Values were normalized to patient "vulnerable plaque 8" (Fig. 5).

maximal bound ^11C-Compound 4 (Fig. 5 (B)): 0.7
maximal bound ^11C-Compound 4 (Fig. 5 (C), stable plaques): 0.15
maximal bound ^11C-Compound 4 (Fig. 5 (C), vulnerable plaques): 1.2
SMILES: [11CH3]N1CCC(NC(=O)c2ccc(-n3nc4c5cccc(F)c5[nH]nc-4c3=O)cc2)CC1 [^11C-Compound 4]
binding to vulnerable plaques compared to stable plaques (conclusion in words from the autoradiography): higher affinity to vulnerable plaques compared to stable plaques
